Experimental data: patent publication US11807644B2 (PMV Pharmaceuticals, Inc., priority 2020, dated 2023)

Target: T1, recombinant His-tag Y220C p53 DBD protein (Homo sapiens, UniProt P04637, Y220C)
T1 construct: recombinant His-tag Y220C p53 DBD protein (amino acids #˜94-312)
Assay: In vitro DNA binding activity assay (TR-FRET): binding of His-tag Y220C p53 DBD to biotin-labeled consensus DNA
Assay type: biochemical
Conditions: SC150 = concentration to increase DNA binding by […], His-tag Y220C p53 DBD, biotin-labeled consensus DNA

Structure (SMILES)	Y220C SC150 (μM)
CN1CC[C@@H](Nc2cccc3c2cc(-c2noc(CNC(=O)[C@H]4C[C@@H]4c4ccccc4)n2)n3CC(F)(F)F)[C@@H](F)C1 (racemic) [Compound 180B, (+/−)-(1R,2R)-N-{[3-(4-{[(3R,4S)-3-fluoro-1-methylpiperidin-4-yl]amino}-1-(2,2,2-trifluoroethyl)-1H-indol-2-yl)-1,2,4-oxadiazol-5-yl]methyl}-2-phenylcyclopropane-1-carboxamide]	* (* = 0 μM ≤ SC150 < 0.1 μM)
COc1cc(S(C)(=O)=O)ccc1NCc1nc(-c2cc3c(N[C@@H]4CCN(C)C[C@@H]4F)cccc3n2CC(F)(F)F)no1 (racemic) [Compound 183B, (+/−)-N-[(3R,4S)-3-fluoro-1-methylpiperidin-4-yl]-2-(5-{[(4-methanesulfonyl-2-methoxyphenyl)amino]methyl}-1,2,4-oxadiazol-3-yl)-1-(2,2,2-trifluoroethyl)-1H-indol-4-amine]	* (* = 0 μM ≤ SC150 < 0.1 μM)
CN1CC[C@@H](Nc2cccc3c2cc(-c2noc(CNC(=O)c4ccn(C(C)(C)C)c4)n2)n3CC(F)(F)F)[C@@H](F)C1 (racemic) [Compound 184B, (+/−)-tert-butyl-N-{[3-(4-{[(3R,4S)-3-fluoro-1-methylpiperidin-4-yl]amino}-1-(2,2,2-trifluoroethyl)-1H-indol-2-yl)-1,2,4-oxadiazol-5-yl]methyl}-1H-pyrrole-3-carboxamide]	* (* = 0 μM ≤ SC150 < 0.1 μM)
CN1CC[C@@H](Nc2cccc3c2cc(-c2noc(CNC(=O)[C@@H]4C[C@H]4c4ccccc4)n2)n3CC(F)(F)F)[C@@H](F)C1 (racemic) [Compound 185B]	* (* = 0 μM ≤ SC150 < 0.1 μM)
COc1cc(S(C)(=O)=O)ccc1NCc1nc(-c2cc3c(N[C@@H]4CCNC[C@@H]4F)cccc3n2CC(F)(F)F)no1 (racemic) [Compound 188B, (+/−)-N-[(3R,4S)-3-fluoropiperidin-4-yl]-2-(5-{[(4-methanesulfonyl-2-methoxyphenyl)amino]methyl}-1,2,4-oxadiazol-3-yl)-1-(2,2,2-trifluoroethyl)-1H-indol-4-amine]	* (* = 0 μM ≤ SC150 < 0.1 μM)
CN(Cc1nc(-c2cc3c(N[C@@H]4CCNC[C@@H]4F)cccc3n2CC(F)(F)F)no1)c1cn[nH]c1 (racemic) [Compound 191B, (+/−)-N-[(3R,4S)-3-fluoropiperidin-4-yl]-2-(5-{[methyl(1H-pyrazol-4-yl)amino]methyl}-1,2,4-oxadiazol-3-yl)-1-(2,2,2-trifluoroethyl)-1H-indol-4-amine]	** (** = 0.1 μM ≤ SC150 < 0.5 μM)
CN1CC[C@@H](Nc2cccc3c2cc(-c2noc(CN(C)c4cn[nH]c4)n2)n3CC(F)(F)F)[C@@H](F)C1 (racemic) [Compound 192B, (+/−)-N-[(3R,4S)-3-fluoro-1-methylpiperidin-4-yl]-2-(5-{[methyl(1H-pyrazol-4-yl)amino]methyl}-1,2,4-oxadiazol-3-yl)-1-(2,2,2-trifluoroethyl)-1H-indol-4-amine]	* (* = 0 μM ≤ SC150 < 0.1 μM)
CN1CC[C@@H](Nc2cccc3c2cc(-c2noc(CNC(=O)[C@H]4C[C@@H]4C#N)n2)n3CC(F)(F)F)[C@@H](F)C1 (racemic) [Compound 193B, (1RS,2RS)-2-cyano-N-{[3-(4-{[(3S,4R)-3-fluoro-1-methylpiperidin-4-yl]amino}-1-(2,2,2-trifluoroethyl)-1H-indol-2-yl)-1,2,4-oxadiazol-5-yl]methyl}cyclopropane-1-carboxamide]	* (* = 0 μM ≤ SC150 < 0.1 μM)
CN1CC[C@@H](Nc2cccc3c2cc(-c2nc(CNC(=O)C4CC4)no2)n3CC(F)(F)F)[C@@H](F)C1 (racemic) [Compound 275B, (+/−)-N-{[5-(4-{[(3R,4S)-3-fluoro-1-methylpiperidin-4-yl]amino}-1-(2,2,2-trifluoroethyl)-1H-indol-2-yl)-1,2,4-oxadiazol-3-yl]methyl}cyclopropanecarboxamide]	* (* = 0 μM ≤ SC150 < 0.1 μM)
CN1CC[C@@H](Nc2cccc3c2cc(-c2nc(CNC(=O)c4ccccc4)no2)n3CC(F)(F)F)[C@@H](F)C1 (racemic) [Compound 276B, (+/−)-N-{[5-(4-{[(3R,4S)-3-fluoro-1-methylpiperidin-4-yl]amino}-1-(2,2,2-trifluoroethyl)-1H-indol-2-yl)-1,2,4-oxadiazol-3-yl]methyl}benzamide]	* (* = 0 μM ≤ SC150 < 0.1 μM)
CN1CC[C@@H](Nc2cccc3c2cc(-c2nc(CNC(=O)c4cccs4)no2)n3CC(F)(F)F)[C@@H](F)C1 (racemic) [Compound 277B, (+/−)-N-{[5-(4-{[(3R,4S)-3-fluoro-1-methylpiperidin-4-yl]amino}-1-(2,2,2-trifluoroethyl)-1H-indol-2-yl)-1,2,4-oxadiazol-3-yl]methyl}thiophene-2-carboxamide]	* (* = 0 μM ≤ SC150 < 0.1 μM)
CN1CC[C@@H](Nc2cccc3c2cc(-c2nc(CNC(=O)c4ccsc4)no2)n3CC(F)(F)F)[C@@H](F)C1 (racemic) [Compound 278B, (+/−)-N-{[5-(4-{[(3R,4S)-3-fluoro-1-methylpiperidin-4-yl]amino}-1-(2,2,2-trifluoroethyl)-1H-indol-2-yl)-1,2,4-oxadiazol-3-yl]methyl}thiophene-3-carboxamide]	* (* = 0 μM ≤ SC150 < 0.1 μM)
CN1CC[C@@H](Nc2cccc3c2cc(-c2nc(CNC(=O)c4cncs4)no2)n3CC(F)(F)F)[C@@H](F)C1 (racemic) [Compound 279B, (+/−)-N-{[5-(4-{[(3R,4S)-3-fluoro-1-methylpiperidin-4-yl]amino}-1-(2,2,2-trifluoroethyl)-1H-indol-2-yl)-1,2,4-oxadiazol-3-yl]methyl}-1,3-thiazole-5-carboxamide]	* (* = 0 μM ≤ SC150 < 0.1 μM)
CC(C)(C)n1ccc(C(=O)NCc2nc(-c3cc4c(N[C@@H]5CCCC[C@H]5F)cccc4n3CC(F)(F)F)no2)c1 (racemic) [Compound 340B]	** (** = 0.1 μM ≤ SC150 < 0.5 μM)
COCC(C)n1ccc(C(=O)NCc2nc(-c3cc4c(N[C@@H]5CCN(C(C)(C)C)C[C@@H]5F)cccc4n3CC(F)(F)F)no2)c1 (mixture of isomers) [Compound 357B, rac-N-{[3-(4-{[(3R,4S)-1-tert-butyl-3-fluoropiperidin-4-yl]amino}-1-(2,2,2-trifluoroethyl)-1H-indol-2-yl)-1,2,4-oxadiazol-5-yl]methyl}-1-(1-methoxypropan-2-yl)-1H-pyrrole-3-carboxamide]	* (* = 0 μM ≤ SC150 < 0.1 μM)
COCC(C)n1ccc(C(=O)NCc2nc(-c3cc4c(N[C@@H]5CCN(C(C)(C)C)C[C@H]5F)cccc4n3CC(F)(F)F)no2)c1 (mixture of isomers) [Compound 358B, rac-N-{[3-(4-{1[(3R,4R)-1-tert-butyl-3-fluoropiperidin-4-yl]amino}-1-(2,2,2-trifluoroethyl)-1H-indol-2-yl)-1,2,4-oxadiazol-5-yl]methyl}-1-(1-methoxypropan-2-yl)-1H-pyrrole-3-carboxamide]	* (* = 0 μM ≤ SC150 < 0.1 μM)
CO[C@@H]1CCC[C@@H]1n1cc(C(=O)NCc2nc(-c3cc4c(N[C@@H]5CCN(C)C[C@@H]5F)cccc4n3CC(F)(F)F)no2)cn1 (racemic) [Compound 370B]	* (* = 0 μM ≤ SC150 < 0.1 μM)
CC(C)(C)n1ccc(C(=O)NCc2nc(-c3cc4c(N[C@@H]5CNCC[C@@H]5F)cccc4n3CC(F)(F)F)no2)c1 (racemic) [Compound 382B, rac-1-tert-butyl-N-{[3-(4-{[(3R,4S)-4-fluoropiperidin-3-yl]amino}-1-(2,2,2-trifluoroethyl)-1H-indol-2-yl)-1,2,4-oxadiazol-5-yl]methyl}-1H-pyrrole-3-carboxamide]	* (* = 0 μM ≤ SC150 < 0.1 μM)
CO[C@]1(C)CC[C@H](n2ccc(C(=O)NCc3nc(-c4cc5c(N[C@@H]6CCN(C)C[C@@H]6F)cccc5n4CC(F)(F)F)no3)c2)C1 (racemic) [Compound 387B, cis-N-{[3-(4-{[(3S,4R)-3-fluoro-1-methylpiperidin-4-yl]amino}-1-(2,2,2-trifluoroethyl)-1H-indol-2-yl)-1,2,4-oxadiazol-5-yl]methyl}-1-[(1R,3S)-3-methoxy-3-methylcyclopentyl]-1H-pyrrole-3-carboxamide]	* (* = 0 μM ≤ SC150 < 0.1 μM)
CO[C@@]1(C)CC[C@H](n2ccc(C(=O)NCc3nc(-c4cc5c(N[C@@H]6CCN(C)C[C@@H]6F)cccc5n4CC(F)(F)F)no3)c2)C1 (racemic) [Compound 388B]	* (* = 0 μM ≤ SC150 < 0.1 μM)
CN1CC[C@H](F)[C@H](Nc2cccc3c2cc(-c2noc(CNC(=O)c4ccn(C(C)(C)C)c4)n2)n3CC(F)(F)F)C1 (racemic) [Compound 389B, rac-1-tert-butyl-N-{[3-(4-{[(3R,4S)-4-fluoro-1-methylpiperidin-3-yl]amino}-1-(2,2,2-trifluoroethyl)-1H-indol-2-yl)-1,2,4-oxadiazol-5-yl]methyl}-1H-pyrrole-3-carboxamide]	* (* = 0 μM ≤ SC150 < 0.1 μM)
Cn1ccc(C(=O)NCc2nc(-c3cc4c(N[C@@H]5CCN(C(C)(C)C)C[C@H]5F)cccc4n3CC(F)(F)F)no2)c1 (racemic) [Compound 399B, N-{[3-(4-{[(3R,4R)-1-tert-butyl-3-fluoropiperidin-4-yl]amino}-1-(2,2,2-trifluoroethyl)-1H-indol-2-yl)-1,2,4-oxadiazol-5-yl]methyl}-1-methyl-1H-pyrrole-3-carboxamide]	* (* = 0 μM ≤ SC150 < 0.1 μM)
Cn1cc(C(=O)NCc2nc(-c3cc4c(N[C@@H]5CCN(C(C)(C)C)C[C@H]5F)cccc4n3CC(F)(F)F)no2)cn1 (racemic) [Compound 407B, N-{[3-(4-{[(3R,4R)-1-tert-butyl-3-fluoropiperidin-4-yl]amino}-1-(2,2,2-trifluoroethyl)-1H-indol-2-yl)-1,2,4-oxadiazol-5-yl]methyl}-1-methyl-1H-pyrazole-4-carboxamide]	* (* = 0 μM ≤ SC150 < 0.1 μM)
